In assay [1] the test system is immediate early genes c-fos, c-Jun and Pip92. Nature of the assay: RT-qPCR of immediate early genes. It is filed as cell-based, mouse. An excerpt:
We then examined whether an increase in intracellular Ca^2+ is sufficient to inhibit NMD. We applied a wide dose range of ouabain, a cardiac glycoside used by Nickless et al., and measured the abundance of both NMD and non-NMD isoforms at various time-points. […] To further test whether increased intracellular Ca^2+ was sufficient to inhibit NMD, we treated the cells with ionomycin, a Ca^2+ ionophore, as another method of raising the cytoplasmic Ca^2+ concentration.
Neuro-2a (N2a) cells were maintained in N2a complete media consisting of L-glutamine-free Dulbecco's modified Eagle's medium (DMEM), 10% FBS and 1× GlutaMAX at 37° C. Thapsigargin (VWR, cat. no. 89161-410), ionomycin (Fisher Scientific, cat. no. AG-CN2-0416-M001) and ouabain octahydrate (Fisher Scientific, cat. no. 80055-364) were dissolved in DMSO and stored at −80° C. For the application of these chemicals, 750,000 cells were plated on 35 mm BioLite TC plates and incubated with 2 ml of N2a complete media overnight before treatment with the drugs at the indicated concentrations. […]
Trizol (Life Technologies, cat. no. 15596-018) was directly added to the cells or mouse brain tissues to extract total RNA following the Trizol Reagent standard protocol. […] RNA concentrations were measured using a Nanodrop 2000c (Thermo Fisher). […] Relative expression (fold changes) was calculated using the ΔΔCt method. […]

The test system of assay [2] is NMD and non-NMD isoforms of Srsf11, Ptbp2, Tra2b, Hnrnpl and Psd-95 (cellular NMD activity). Nature of the assay: RT-qPCR of endogenous NMD and non-NMD isoforms to monitor cellular NMD activity. It is filed as cell-based, mouse. An excerpt:
In our method, we measure the individual abundance of NMD-sensitive isoforms and that of their non-NMD counterparts via quantitative real-time PCR (qPCR). The NMD isoforms are first examined for differential expression between a treatment and a control condition. An increase in a NMD isoform may be due to NMD inhibition, transcriptional activation or a change in alternative splicing favoring the NMD isoform. These three scenarios can be distinguished by examining the expression of the non-NMD counterparts. Genuine NMD regulation, transcriptional activation and alternative splicing regulation would lead to no change, upregulation and down-regulation of the NMD-insensitive isoforms, respectively (FIG. 6A).
One technical difficulty of our method is designing RT-qPCR primers specific to the cassette exon-skipping isoform, whose entire sequence is contained in the inclusion isoform. To specifically detect an inclusion isoform, we designed a primer entirely annealing to the cassette exon (exon B in FIG. 1A). For the exclusion isoform, junction primers annealing to the exon-skipping junction appear to be the only choices. This can be either a reverse primer (FIG. 1A) with its 5′ portion matching the downstream constitutive exon (exon C) and its 3′ portion matching the upstream constitutive exon (exon A) or a forward primer (not shown) with its 5′ and 3′ portions matching the upstream and downstream exons, respectively. The challenge is herein illustrated with reverse primers but also applies to forward primers. Many exon-skipping junction primers are able to amplify the inclusion isoforms (FIGS. 7A-D). The longer the 3′ portion of the junction primer annealing to the upstream constitutive exon, the easier the primer amplifies the inclusion transcripts (FIG. 7B). Some exon-skipping junction primers with 3′ portions as short as six nucleotides, as we've observed, can still anneal to and detect the inclusion isoform at 55-60° C., albeit at a lower efficiency than its detection of the exclusion isoform. On the other hand, a longer 5′ portion and a shorter 3′ portion increase the possibility of the primer annealing to the exon B-exon C junction because of the sequence similarity around 5′ splice sites (FIGS. 7C-D). We therefore had to identify NMD-associated cassette exons containing a 3′ end unlike that of its upstream exon. We then screened multiple exon-skipping junction primers for one that amplified only the exclusion isoform and not the inclusion isoform. All primer pairs were tested and confirmed for their specificity, RT-qPCR efficiency and linear dynamic ranges (FIG. 10). Finally, two stably expressed housekeeping genes, Gapdh and Sdha, were used as internal controls for normalization by geometric averaging (Vandesompele et al., 2002. Genome Biol 3: RESEARCH0034).
Because our method can be used on its own can to infer NMD regulation with a low false positive rate, one of its applications is unbiased screening for changes in cellular NMD activity. We screened a small panel of widely used pharmacological inhibitors for their effects on NMD. The expression of both the NMD and non-NMD isoforms of Ptbp2, Srsf11, Tra2b, Hnrnpl and Psd-95 were simultaneously measured before and after drug treatment. When the levels of all of the NMD isoforms were altered by a chemical in the same direction, the expression of the NMD and non-NMD isoforms under the treatment and control conditions was then subjected to ANOVA analysis to determine differential regulation of the two isoforms. We were interested in drugs that affected the NMD isoforms across the board and more strongly than the non-NMD counterparts. With this criterion, we identified thapsigargin as having potent activity in blocking cellular NMD.
Neuro-2a (N2a) cells were maintained in N2a complete media consisting of L-glutamine-free Dulbecco's modified Eagle's medium (DMEM), 10% FBS and 1× GlutaMAX at 37° C. […]

Entries after “also recorded” stand apart in the source; their conditions may differ.

Two compounds from patent US20180010188A1, “METHOD FOR DETECTING NONSENSE-MEDIATED RNA DECAY” (The Regents of the University of California, priority 2016, published 2018) can be followed below.

`C[C@H](CCC(=O)O)C[C@H](C)C[C@H](C)C(=O)/C=C(\O)[C@H](C)C[C@H](C)C/C=C/[C@@H](C)[C@@H](O)[C@@H](C)[C@@H](O)C[C@@H]1CC[C@@](C)([C@H]2CC[C@@](C)([C@@H](C)O)O2)O1` [ionomycin]: in assay [1] (ionomycin treatment), the “expression of immediately early genes c-Jun and Pip92” value is recorded as “increased expression”. Also, in assay [2] (1 to 100 μM), the “levels of the NMD isoforms” value is on record as “did not alter”.
In the case of `C[C@@H]1O[C@@H](O[C@H]2C[C@@H](O)[C@]3(CO)[C@H]4[C@H](O)C[C@]5(C)[C@@H](C6=CC(=O)OC6)CC[C@]5(O)[C@@H]4CC[C@]3(O)C2)[C@H](O)[C@H](O)[C@H]1O` [ouabain], in assay [1] (200 or 400 μM, N2a cells), the “immediate early genes c-fos and Pip92” value is reported as “clearly stimulated; also recorded: clearly induced”. Also, in assay [2] (200 or 400 μM), the “NMD isoforms at high concentration” value is “not substantially enhanced”. Besides, the “changes in cellular NMD activity” value in assay [2] (wide dose range, various time-points, N2a cells) was “only minimal changes; also recorded: did not unequivocally affect NMD activity”.
